Laboratory results as given in patent US11117907B2, “Curcuminoid-inspired synthetic compounds as anti-tumor agents” (University of North Florida Board of Trustees, priority 2017, dated 2021).
Read-outs that look alike come from different tables or passages of the source. One block for each molecule: values may come before it.

Columns and labels:
RPMI-8226 = assay: Apoptosis (annexin-V/PI flow cytometry), RPMI-8226; format: cell-based, human; details: 2.5 uM, 24 h
Experimental: (§1) Apoptotic cell death in multiple myeloma (MM) cancer cell lines (RPMI-8226, KMS-11, MM1.S) as well as peripheral blood mononuclear cells (PBMCs) from healthy donors that were exposed to various concentrations of (A) CUR-analog 1 (Indole-4 CUR—BF2) and (B) CUR-analog 2 (Indole-5 CUR) or (C) the FDA-approved Bcl-2 inhibitor (venetoclax, used for comparison) was assessed.
(§2) Cell lines and PBCMs (peripheral blood mononuclear cells from healthy donors as non-cancer CONTROL) were seeded in quadruplicate (technical replicates). CellTiter-Glo® 2.0 reagent equal to the volume of cell culture medium present in each well was added and the plate was left to incubate at room temperature for 10 minutes to stabilize the luminescent signal. Luminescent signal/intensity from the 384-well plate was read on a plate reader. Cells/cell lines used: BCWM.1 (Waldenstrom macroglobulinemia cell line, WM); RPMI-8266 (Multiple myeloma cell line, MM); RS4; 11 (Acute lymphoblastic leukemia, ALL). For Apoptosis study cells were treated with the indicated agents and concentrations (FIG. 74) for 24 h and stained with annexin-V and propidium iodide (PI), followed by flow cytometry analysis.

[1] = tested on: MM cell lines (MM1.S, KMS11, RPMI-8226); assay: Cell proliferation and viability in multiple myeloma cell lines (CellTiter Glo 2.0, 72 h); format: cell-based, human; details: read-out: median IC50 concentration in MM cell lines
Experimental: Cell proliferation and viability were determined in multiple myeloma (MM) cancer cell lines (RPMI-8226, KMS-11, MM1.S) as well as in peripheral blood mononuclear cells (PBMCs) from healthy donors that were exposed to various concentrations of (A) CUR-analog 1 (3-BF2) and (B) CUR-analog 2 (CUR 2) for 72 hours using the CellTiter Glo 2.0 assay.
as §2

KMS-11 = assay: Apoptosis (annexin-V/PI flow cytometry), KMS-11; format: cell-based, human; details: 2.5 uM, 24 h
Experimental: as §1, §2

MM1.S = assay: Apoptosis (annexin-V/PI flow cytometry), MM1.S; format: cell-based, human; details: 2.5 uM, 24 h
Experimental: as §1, §2

PBMCs = assay: Apoptosis (annexin-V/PI flow cytometry), healthy donor PBMCs; format: cell-based, human
Experimental: as §1, §2

A549 = assay: In vitro cell viability bioassay, MTT, A549; format: cell-based; details: Homo sapiens, MTT assay, read-out: Lung Cancer IC50 (μM) A549
Experimental: (§3) To evaluate the cell growth inhibitory and apoptosis inducing effects of the fluorinated curcuminoids and their BF2 adducts, in-vitro bioassay tests were performed on […] different cancer cell lines namely: MOLT-4 (human leukemia suspension cancer cell line), PC3 and LNCap (human […] prostate cancer cell lines respectively), A549 (lung cancer), and MDA231 (breast cancer), and the results are sketched in Table 3.
(§4) The cell viability/anti-proliferative activity of the curcuminoids against PC3 (human androgen-insensitive prostate cancer cell line), LNCap (human-androgen sensitive prostate cancer cell line), A549 (lung cancer), and MDA231 (breast cancer) were determined by means of 3-(4,5-dimethyl-2-thiazolyl)-2,5-diphenyl-2H-tetrazolium bromide (MTT) assay (the tetrazolium salt was a commercial sample). (R. N. Khaybullin, et al., Molecules, 2014, 19, 18676-18689). The ability of the curcuminoids to affect proliferations of suspension cell lines (MOLT-4) was tested by the CellTiter-Glo® Luminescent Cell Viability Assay (purchased from Promega Madison, Wis., USA) to determine the number of viable cells in culture based on quantitation of the ATP present. The IC50 values were obtained from fitting data with GraphPad software to determine the growth inhibition in the presence of test compounds. (R. N. Khaybullin, et al., Molecules, 2014, 19, 18676-18689).

MDA231 = assay: In vitro cell viability bioassay, MTT, MDA231; format: cell-based, human; details: Homo sapiens, MDA-MB-231; MTT assay; read-out: Breast Cancer IC50 (μM) MDA231
Experimental: as §3, §4

LNCap = assay: In vitro cell viability bioassay, MTT, LNCap; format: cell-based; details: Homo sapiens, MTT assay, read-out: Prostate Cancer IC50 (μM) LNCap
Experimental: as §3, §4

PC3 = assay: In vitro cell viability bioassay, MTT, PC3; format: cell-based; details: Homo sapiens, PC-3; MTT assay; read-out: Prostate Cancer IC50 (μM) PC3
Experimental: as §3, §4

MOLT-4 = assay: In vitro cell viability bioassay, CellTiter-Glo, MOLT-4; format: cell-based, human; details: Homo sapiens, MOLT-4; CellTiter-Glo Luminescent Cell Viability Assay; read-out: Leukemia IC50 (μM) MOLT-4
Experimental: as §3, §4

PBMC [2] = assay: Cell viability assay (CellTiter-Glo 2.0), PBMC from healthy donors; format: cell-based; details: Homo sapiens, Table 7, run number 2, 72 h
Experimental: Peripheral blood mononuclear cells (PBMCs) were collected from healthy, i.e. non-cancerous, donors (CONTROL).
(§5) RPMI-8266 (Multiple myeloma cell line, MM) and PBCMs cells were seeded into 384-well culture plates at 2×10^3 cell/well in quadruplicate, and incubated at 5% CO2, 37° C. The culture media was replaced with compounds (ranges from 0-10,000 nM) and incubated for 72 h. Bortezomib was spiked in control. […] CellTiter-Glo® 2.0 reagent was added at equal volume to the cell culture medium present in each well and the plate was left to incubate at room temperature for 10 minutes to stabilize the luminescent signal.
Cell lines and PBCMs (peripheral blood mononuclear cells from healthy donors as non-cancer CONTROL) were seeded in quadruplicate (technical replicates). CellTiter-Glo® 2.0 reagent equal to the volume of cell culture medium present in each well was added and the plate was left to incubate at room temperature for 10 min to stabilize the luminescent signal. Luminescent signal/intensity from the 384-well plate was read on a plate reader. […]
Cell lines and PBCMs (peripheral blood mononuclear cells from healthy donors as non-cancer CONTROL) were seeded in quadruplicate (technical replicates). […] Luminescent signal/intensity from the 384-well plate was read on a plate reader. […]

PBMC [3] = details: comparison value; read-out: IC50 of PBMCs; cited from earlier work
RPMI8226 [4] = assay: Cell viability assay to determine EC50 (CellTiter-Glo 2.0), RPMI8226; format: cell-based; details: Homo sapiens, RPMI-8226; Table 7, run number 2; 72 h
Experimental: as §5
(§6) Cell lines and PBCMs (peripheral blood mononuclear cells from healthy donors as non-cancer CONTROL) were seeded in quadruplicate (technical replicates). CellTiter-Glo® 2.0 reagent equal to the volume of cell culture medium present in each well was added and the plate was left to incubate at room temperature for 10 min to stabilize the luminescent signal. Luminescent signal/intensity from the 384-well plate was read on a plate reader. Cells/cell lines used: BCWM.1 (Waldenstrom macroglobulinemia cell line, WM); RPMI-8266 (Multiple myeloma cell line, MM); RS4; 11 (Acute lymphoblastic leukemia, ALL)* reported to be dependent on Bcl-2 protein.

RPMI8226 [5] = details: control; typically; read-out: EC50 in RPMI8266, typical value; cited from earlier work
[6] = tested on: MM cell lines (MM1.S, KMS11, RPMI-8226); details: cited from earlier work
MM cell lines = assay: Apoptosis (annexin-V/PI flow cytometry), median over MM cell lines; format: cell-based, human; details: 1.25, 2.5, 5 uM and 10 uM
Experimental: as §1, with “assessed. Bar graphs show % of apoptotic cells (annexin-V+PI positive cells) normalized to basal apoptosis observed in control (DMSO-treated) cells.” for “assessed.”
In contrast, in KMS11 and MM1.S cells, notable apoptosis (54% and 15%, respectively) was seen only at a 10 uM concentration.
as §6, with “10 minutes” for “10 min”, “leukemia, ALL). […]” for “leukemia, ALL)* reported to be dependent on Bcl-2 protein.”

IC50 [1]: 2100 nM
SMILES: F[B-]1(F)OC(/C=C/c2cccc3[nH]ccc23)=CC(/C=C/c2cccc3[nH]ccc23)=[O+]1 [3-BF2, Indole-4-Curcuminoid-BF2 adduct]
apoptosis, RPMI-8226 (RPMI-8226): 60% | apoptosis, KMS-11 (KMS-11): 79% | apoptosis, MM1.S (MM1.S): 47% | apoptosis, healthy donor PBMCs (PBMCs; […] and 2.5 uM, 24 h): 23-28%

IC50 (A549): 18 µM | IC50 (LNCap): 9.7 µM | IC50 (PC3): 9 µM | IC50 (MOLT-4): 19 µM
SMILES: COc1cc(/C=C/C(=O)CC(=O)/C=C/c2ccc(O)c(OC)c2)ccc1O [compound 1 of FIG. 2, curcumin]
IC50 (MDA231): 11.5 µM

EC50 (RPMI8226 [4]): 10.6 nM
SMILES: CC(C)C[C@H](NC(=O)[C@H](Cc1ccccc1)NC(=O)c1cnccn1)B(O)O [Bortezomib]
EC50 (PBMC [2]): 60.5 nM | IC50 (PBMC [3]): 4 to 6 nM | EC50 (RPMI8226 [5]): 10 to 16 nM | in vitro tumor-specificity profile ([6]; MM cells versus PBMCs): 2-3 fold | IC50 ([6]; comparison value, read-out: IC50 in MM cells): ~2 nM

SMILES: CC1(C)CCC(CN2CCN(c3ccc(C(=O)NS(=O)(=O)c4ccc(NCC5CCOCC5)c([N+](=O)[O-])c4)c(Oc4cnc5[nH]ccc5c4)c3)CC2)=C(c2ccc(Cl)cc2)C1 [Venetoclax, reference compound]
cell death in healthy donor PBMCs (PBMCs; 1.25, 2.5, 5 uM and 10 uM): ~10% | median apoptosis, MM cell lines (MM cell lines): 15%
